From publication PMC12670400, “LEKTI-Grafted Sunflower Trypsin Inhibitor: A Potential Therapeutic for Skin Diseases” (Journal of Medicinal Chemistry, 2025)
Read-outs that look alike come from different tables or passages of the source. Bridge positions count the residues as written; N and C are the ends. Peptide text beside a SMILES is read from it.

Key:
KLK5 = target: T1, KLK5 (Homo sapiens, UniProt Q9Y337); assay: Protease activity assay: inhibition of recombinant KLK5 (Boc-VPR-AMC substrate); format: biochemical
T1 construct: purchased R&D Systems 1108-SE
T1 sequence (Q9Y337 23-293): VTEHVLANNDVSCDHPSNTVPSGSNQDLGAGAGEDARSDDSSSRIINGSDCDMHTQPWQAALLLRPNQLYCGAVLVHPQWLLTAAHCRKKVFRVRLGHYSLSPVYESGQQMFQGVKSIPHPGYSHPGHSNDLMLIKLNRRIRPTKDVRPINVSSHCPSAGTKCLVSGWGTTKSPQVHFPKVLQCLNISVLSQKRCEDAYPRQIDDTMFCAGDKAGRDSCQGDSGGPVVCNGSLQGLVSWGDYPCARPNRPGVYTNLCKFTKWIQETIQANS
Procedure: Inhibitory activity against KLK5 was evaluated using the fluorogenic substrate Boc-VPR-AMC for KLK5 (Table ). […] The P1–P1′ reactive site (Arg5 to Ser6) is critical for inhibitor binding, with the P1′ position contributing up to 50% of the total association energy. , The conserved serine at P1′ in Bowman-Birk inhibitors (BBIs) is essential for function. […] Preservation of serine in the P1′ position restored inhibitory activity seen in 5 and 6. Preserving the native serine restored efficacy to the nanomolar range (5: 31 ± 7 nM; 6: 114 ± 11 nM).
Methods for biological experiment
SFTI analogues were created by individual amino acid substitutions in PYMOL (Python Molecular Graphics System) using the existing solution NMR structure of native SFTI - 1 (1JBL) found in the RCSB (Research Collaboratory for Structural Bioinformatics) database. Residues of 2 were mutated as follows: L5R, I10H, and F12W with conserved SFTI-1 backbone structure. Other SFTI based analogues were further modified using PYMOL. Currently, there are no SFTI-1 and Kallikrein 5 co-crystal structures found in the RCSB database. Superimposing the existing crystal structure of SFTI-1 and Trypsin complex (4XOJ) with Kallikrein 5 crystal structure (2PSX) was performed with PYMOL. Ab-initio docking between KLK5 and 2 were performed with HADDOCK 2.4 1, 2, with binding active site parameter set to Arg2, Cys3, Thr4, Arg5, Ser6 for 2 and Ser195, His57, and Asp102 for KLK5 catalytic triad. PRODIGY 3-5, set at 25 °C, was used to predict dissociation constant and binding interactions of docked clusters. Structural visualization and alignment were performed with PYMOL 6, and comparative sequence analysis was performed with MEGA11 7.
A fluorescence spectrometer using SpectraMax® i3x plate reader (Molecular Devices, United States) was used to measure the relative fluorescence unit (RFU) on a 96-well black microplate (Grenier Bio-one, cat no. 655074). The wavelengths were set to 360/460 nm (excitation/emission) for the substrate Boc-VPR-AMC (Bachem AG, cat no. 4003460) and 320/405nm for the substrate Mca-RPKPVE-Nval-WRK(Dnp)-NH2 Fluorogenic MMP Substrate (R&D Systems Biotechne, cat no.ES002). The Boc-VPR-AMC stock solution was prepared by dissolving the solid form in dimethyl sulfoxide to 100 mM. Mca-RPKPVE-Nval-WRK(Dnp)-NH2 fluorogenic MMP Substrate is supplied as stock solution at 10.0 mg/mL in dimethyl sulfoxide. Boc-VPR-AMC was used as a substrate for KLK5, 8 and 14. Mca-RPKPVE-Nval-WRK(Dnp)-NH2 was used as a substrate for KLK7. The ligand-only solution serves as a negative control (minimum RFU, 100% inhibition), and enzyme-only was served as positive (maximum RFU, 0% inhibition). The activities of proteases were measured and readout against the standard curve made in serial dilutions of tested recombinant KLKs, ranging from 0nM to 60nM. Each assay was done in triplicates and repeated at least for three times […]
Assessment of analogue mediated inhibition of KLK5, KLK7, KLK8, and KLK14 […]
Recombinant KLK5 (R&D Systems, cat no. 1108-SE) was diluted to a final concentration of 10 nM in 1X PBS (pH 8.0). KLK5 was pre -incubated on ice for 1 hour with serial dilutions of SFTI-derived analogues to assess inhibitory activity. After incubation, 20 µL of each mixture was transferred to we lls of a 96-well microplate in triplicates. The enzymatic reaction was initiated by adding 100 µL of Boc -VPR-AMC substrate (final concentration 100 µM) to each well. Fluorescence (RFU) was measured using a SpectraMax® i3x plate reader with chamber temperature maintained at 37°C. Readings were started at 0 minutes (baseline) and another […]
Recombinant KLK7 (R&D Systems , cat no. 2624-SE) and KLK14 (R&D Systems, cat no. 2664-SE) were activated by adding 1 mM CaCl ₂ 0.05% v/v Brij-35 (Sigma, cat no. […]
incubated at 37°C for 1 hour. Reactions were stopped by adding EDTA to a final concentration of 50 mM (Sigma, cat no. EDS-100G) KLK8 (catalytic domain only; R&D Systems, cat no. 2025-SE-010) was activated separately with 11 nM lysyl […]

[1] = amide bond, 42-membered ring, then NH4HCO3 air oxidation, 2 steps
[2] = target: Kallikrein-related peptidase 5 (KLK5) (UniProt Q9Y337 23-293); assay: enzyme inhibition assay (fluorogenic substrate); inhibition of KLK5 activity by the peptide, fluorogenic substrate Boc-VPR-AMC, n = 3; conditions in the Supporting Information; details: both partners purified
KLK8 = target: T2, KLK8 (UniProt O60259 33-260); assay: enzyme inhibition assay (fluorogenic substrate); selectivity: inhibition of KLK7, KLK8 or KLK14 activity by the peptide, n = 3; substrates and conditions in the Supporting Information; details: both partners purified
T2 construct: Kallikrein 8 (KLK8); construct and source are in the Supporting Information
T2 sequence (looked up): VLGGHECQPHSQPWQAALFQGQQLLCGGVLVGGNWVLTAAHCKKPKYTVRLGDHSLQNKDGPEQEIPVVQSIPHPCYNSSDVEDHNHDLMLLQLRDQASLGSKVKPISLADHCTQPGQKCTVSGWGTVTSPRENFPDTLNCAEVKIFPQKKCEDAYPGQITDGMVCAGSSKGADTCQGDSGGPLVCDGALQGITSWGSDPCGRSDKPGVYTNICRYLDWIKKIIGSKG

KLK14 = target: T3, KLK14 (UniProt Q9P0G3); assay: as above
T3 sequence (Q9P0G3 41-267, species assumed, looked up): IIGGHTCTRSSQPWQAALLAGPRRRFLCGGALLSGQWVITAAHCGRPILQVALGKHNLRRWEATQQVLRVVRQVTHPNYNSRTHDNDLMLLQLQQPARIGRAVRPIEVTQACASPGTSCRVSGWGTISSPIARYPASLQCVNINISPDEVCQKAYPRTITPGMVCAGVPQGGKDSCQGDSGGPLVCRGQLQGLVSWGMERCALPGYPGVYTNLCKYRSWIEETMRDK

KLK7 = KLK7 (Homo sapiens, UniProt P49862); assay: as above
[3] = MESNa/TCEP (N-to-S acyl shift, NCL), 0.1 M sodium phosphate pH 5.8, 50.0 °C
[4] = NaNO2, MPAA (NCL), TCEP, 6 M guanidinium chloride buffer, 1.0 mM, 25.0 °C

Q: For `CC[C@H](C)[C@@H]1NC(=O)[C@H](CO)NC(=O)[C@H](CCCNC(=N)N)NC(=O)[C@H]([C@@H](C)O)NC(=O)[C@@H]2CSSC[C@H](NC(=O)[C@H](Cc3c[nH]cn3)NC(=O)[C@@H]3CCCN3C(=O)[C@@H]3CCCN3C1=O)C(=O)N[C@@H](Cc1c[nH]c3ccccc13)C(=O)N1CCC[C@H]1C(=O)N[C@@H](CC(=O)O)C(=O)NCC(=O)N[C@@H](CCCNC(=N)N)C(=O)N2` [compound 2] (cyclo(CTRSIPPHCWPDGR); disulfide 1-9), which IC50 (KLK5; n = 3, 10 nM KLK5, Boc-VPR-AMC 100 µM, PBS pH 8.0, read-out: IC50 (n = 3)/nM for KLKs: KLK5) is on record?
A: Its IC50 is 54 ± 3 nM.

Q: With `N=C(N)NCCC[C@@H]1NC(=O)[C@H](Cc2c[nH]cn2)NC(=O)[C@@H]2CSSC[C@H](NC(=O)[C@H](CCC(=O)O)NC(=O)[C@@H]3CCCN3C(=O)[C@@H]3CCCN3C(=O)[C@H](Cc3ccc(O)cc3)NC(=O)[C@H](CO)NC1=O)C(=O)N[C@@H](Cc1c[nH]c3ccccc13)C(=O)N1CCC[C@H]1C(=O)N[C@@H](CC(N)=O)C(=O)NCC(=O)N[C@@H](Cc1ccccc1)C(=O)N2` [compound 8] as the molecule, how does the “increase in KLK5 inhibitory potency (IC50) compared to 2” value (KLK5; ratio of IC50 values) read?
A: The value was 7 fold.

Q: What about the “increase in KLK5 inhibitory potency (IC50) relative to 1” value (KLK5; ratio of IC50 values) of the same molecule?
A: Its value is 28 fold.

Q: With GFCHREYPPHCWPN as the molecule, how does the ring closure, yield after HPLC [1, 3] read?
A: Its ring closure, yield after HPLC is 18%.

Q: Which ring closure, yield after HPLC [1, 4] does the source give for GFCHRSYPPECWPN here?
A: Its ring closure, yield after HPLC is 6%.

Q: With GFCHRSYPPHCWPN as the molecule, how does the ring closure, yield after HPLC [1, 3] read?
A: Its ring closure, yield after HPLC is 15%.

Q: Which ring closure, yield after HPLC [1, 3] does the source give for GFCTRENPPHCWPN here?
A: The ring closure, yield after HPLC was 14%.

Q: With GFCTRSNPPECWPN as the molecule, how does the ring closure, yield after HPLC [1, 4] read?
A: Its ring closure, yield after HPLC is 8%.

Q: For GFCTRSNPPHCWPN, which ring closure, yield after HPLC [1, 3] is on record?
A: The ring closure, yield after HPLC was 15%.

Q: With GRCTRSIPPHCWPD as the molecule, how does the ring closure, yield after HPLC [1, 3] read?
A: Its ring closure, yield after HPLC is 18%.

Q: With GSCTRSSPPECWPN as the molecule, how does the ring closure, yield after HPLC [1, 4] read?
A: Its ring closure, yield after HPLC is 9%.

Q: With GYCTRSSPPECWPN as the molecule, how does the ring closure, yield after HPLC [1, 4] read?
A: The ring closure, yield after HPLC was 12%.

B1: SFTI analogue 4 (peptide)
peptide: cyclo(GFCHREYPPHCWPN)
modifications: disulfide 3-11 (inferred)
notes: scaffold of analogue 2 grafted with residues of a LEKTI or LEKTI-like domain; source: synthetic peptide (Fmoc solid-phase synthesis, cyclised via N to S acyl shift, oxidised, RP-HPLC purified)
Q: With B1 as the molecule, how does the IC50 [2] read?
A: The IC50 was 1490 ± 50 nM.

B2: SFTI analogue 6 (peptide)
peptide: cyclo(GFCHRSYPPHCWPN)
modifications: disulfide 3-11 (inferred)
notes: scaffold of analogue 2 grafted with residues of a LEKTI or LEKTI-like domain, serine kept at P1'; source: synthetic peptide (Fmoc solid-phase synthesis, cyclised via N to S acyl shift, oxidised, RP-HPLC purified)
Q: For B2, which IC50 [2] is on record?
A: Its IC50 is 114 ± 11 nM.

B3: SFTI analogue 5 (peptide)
peptide: cyclo(GFCTRSNPPHCWPN)
modifications: disulfide 3-11 (inferred)
notes: scaffold of analogue 2 grafted with residues of a LEKTI domain, serine kept at P1'; source: synthetic peptide (Fmoc solid-phase synthesis, cyclised via N to S acyl shift, oxidised, RP-HPLC purified)
Q: For B3, which IC50 [2] is on record?
A: Its IC50 is 31 ± 7 nM.

B4: SFTI-1 triple mutant 2, cyclo-[GRCTRSIPPHCWPD] (peptide)
peptide: cyclo(GRCTRSIPPHCWPD)
modifications: disulfide 3-11 (inferred)
notes: numbers count on: the mature 14-residue cyclic peptide; source: synthetic peptide (Fmoc solid-phase synthesis, cyclised via N to S acyl shift, oxidised, RP-HPLC purified)
Q: With B4 as the molecule, how does the IC50 (KLK8) read?
A: Its IC50 is 373 ± 31 nM.

B5: SFTI analogue 3 (peptide)
peptide: cyclo(GFCTRENPPHCWPN)
modifications: disulfide 3-11 (inferred)
notes: scaffold of analogue 2 grafted with residues of a LEKTI domain; source: synthetic peptide (Fmoc solid-phase synthesis, cyclised via N to S acyl shift, oxidised, RP-HPLC purified)
Q: Which IC50 [2] does the source give for B5 here?
A: Its IC50 is 1800 ± 58 nM.

Q: Which IC50 (KLK14) does the source give for cyclo(GRCTRSIPPHCWPD) (disulfide 3-11 (inferred)) [SFTI-1 triple mutant 2, cyclo-[…]] here?
A: Its IC50 is 24 nM.

Q: What about the IC50 (KLK7) of the same molecule?
A: Its IC50 is 534 nM.

B6: SFTI analogue 9 (peptide)
peptide: cyclo(GSCTRSSPPECWPN)
modifications: disulfide 3-11 (inferred)
notes: SFTI scaffold grafted with residues of a further LEKTI domain, glutamic acid at position 10; source: synthetic peptide (hydrazide peptide, cyclised via native chemical ligation, oxidised, RP-HPLC purified)
Q: Which IC50 (KLK8) does the source give for B6 here?
A: The IC50 was over 1000 nM.

Q: What about the IC50 (KLK14) of the same molecule?
A: Its IC50 is over 1000 nM.

B7: SFTI analogue 10 (peptide)
peptide: cyclo(GYCTRSSPPECWPN)
modifications: disulfide 3-11 (inferred)
notes: as for B6
Q: For B7, which IC50 (KLK8) is on record?
A: Its IC50 is over 1000 nM.

Q: And the IC50 (KLK14)?
A: Its IC50 is over 1000 nM.
